Test results reported in ChEMBL document CHEMBL1154382, “Preliminary SAR analysis of novel antiproliferative N(6),5'-bis-ureidoadenosine derivatives” (2009).

Legend:
Format in all cases: functional
Conditions in all cases: values are per cent of control
[1] = system: U-251; experiment: Antiproliferative activity against human U251 cells at 10 uM assessed as cell growth inhibition relative to control
[2] = system: HCT-15; experiment: Antiproliferative activity against human HCT15 cells at 10 uM assessed as cell growth inhibition relative to control
[3] = system: MDA-MB-468; experiment: Antiproliferative activity against human MDA-MB-468 cells at 10 uM assessed as cell growth inhibition relative to control
[4] = system: DU-145; experiment: Antiproliferative activity against human DU145 cells at 10 uM assessed as cell growth inhibition relative to control
[5] = system: SK-MEL-28; experiment: Antiproliferative activity against human SK-MEL-28 cells at 10 uM assessed as cell growth inhibition relative to control
[6] = system: ACHN; experiment: Antiproliferative activity against human ACHN cells at 10 uM assessed as cell growth inhibition relative to control
[7] = system: SW-620; experiment: Antiproliferative activity against human SW620 cells at 10 uM assessed as cell growth inhibition relative to control
[8] = system: NCI-H522; experiment: Antiproliferative activity against human NCI-H522 cells at 10 uM assessed as cell growth inhibition relative to control
[9] = system: HCC 2998; experiment: Antiproliferative activity against human HCC2998 cells at 10 uM assessed as cell growth inhibition relative to control
[10] = system: HCT-116; experiment: Antiproliferative activity against human HCT116 cells at 10 uM assessed as cell growth inhibition relative to control
[11] = system: NCI-H460; experiment: Antiproliferative activity against human NCI-H460 cells at 10 uM assessed as cell growth inhibition relative to control
[12] = system: TK-10; experiment: Antiproliferative activity against human TK10 cells at 10 uM assessed as cell growth inhibition relative to control
[13] = system: A498; experiment: Antiproliferative activity against human A498 cells at 10 uM assessed as cell growth inhibition relative to control
[14] = system: SK-OV-3; experiment: Antiproliferative activity against human SKOV3 cells at 10 uM assessed as cell growth inhibition relative to control
[15] = system: OVCAR-8; experiment: Antiproliferative activity against human OVCAR8 cells at 10 uM assessed as cell growth inhibition relative to control
[16] = system: SN12C; experiment: Antiproliferative activity against human SN12C cells at 10 uM assessed as cell growth inhibition relative to control
[17] = system: RXF 393; experiment: Antiproliferative activity against human RXF393 cells at 10 uM assessed as cell growth inhibition relative to control
[18] = Antiproliferative activity against human Hs 578T cells at 10 uM assessed as cell growth inhibition relative to control
[19] = system: UACC-62; experiment: Antiproliferative activity against human UACC62 cells at 10 uM assessed as cell growth inhibition relative to control
[20] = system: UACC-257; experiment: Antiproliferative activity against human UACC257 cells at 10 uM assessed as cell growth inhibition relative to control
[21] = system: SF-268; experiment: Antiproliferative activity against human SF268 cells at 10 uM assessed as cell growth inhibition relative to control
[22] = system: MDA-MB-231; experiment: Antiproliferative activity against human MDA-MB-231 cells at 10 uM assessed as cell growth inhibition relative to control
[23] = system: PC-3; experiment: Antiproliferative activity against human PC3 cells at 10 uM assessed as cell growth inhibition relative to control
[24] = system: SK-MEL-5; experiment: Antiproliferative activity against human SK-MEL-5 cells at 10 uM assessed as cell growth inhibition relative to control
[25] = system: SK-MEL-2; experiment: Antiproliferative activity against human SK-MEL-2 cells at 10 uM assessed as cell growth inhibition relative to control
[26] = system: COLO 205; experiment: Antiproliferative activity against human COLO205 cells at 10 uM assessed as cell growth inhibition relative to control
[27] = system: OVCAR-4; experiment: Antiproliferative activity against human OVCAR4 cells at 10 uM assessed as cell growth inhibition relative to control
[28] = system: OVCAR-3; experiment: Antiproliferative activity against human OVCAR-3 cells at 10 uM assessed as cell growth inhibition relative to control
[29] = system: SNB-75; experiment: Antiproliferative activity against human SNB75 cells at 10 uM assessed as cell growth inhibition relative to control
[30] = system: HOP-92; experiment: Antiproliferative activity against human HOP92 cells at 10 uM assessed as cell growth inhibition relative to control
[31] = system: NCI-H226; experiment: Antiproliferative activity against human NCI-H226 cells at 10 uM assessed as cell growth inhibition relative to control
[32] = system: OVCAR-5; experiment: Antiproliferative activity against human OVCAR5 cells at 10 uM assessed as cell growth inhibition relative to control
[33] = system: CAKI-1; experiment: Antiproliferative activity against human Caki1 cells at 10 uM assessed as cell growth inhibition relative to control
[34] = system: UO-31; experiment: Antiproliferative activity against human UO31 cells at 10 uM assessed as cell growth inhibition relative to control
[35] = system: BT-549; experiment: Antiproliferative activity against human BT549 cells at 10 uM assessed as cell growth inhibition relative to control
[36] = system: HOP-62; experiment: Antiproliferative activity against human HOP62 cells at 10 uM assessed as cell growth inhibition relative to control
[37] = system: SNB-19; experiment: Antiproliferative activity against human SNB19 cells at 10 uM assessed as cell growth inhibition relative to control
[38] = system: NCI-H23; experiment: Antiproliferative activity against human NCI-H23 cells at 10 uM assessed as cell growth inhibition relative to control
[39] = system: LOX IMVI; experiment: Antiproliferative activity against human LOXIMVI cells at 10 uM assessed as cell growth inhibition relative to control
[40] = system: CCRF-CEM; experiment: Antiproliferative activity against human CCRF-CEM cells at 10 uM assessed as cell growth inhibition relative to control
[41] = system: MCF7; experiment: Antiproliferative activity against human MCF7 cells at 10 uM assessed as cell growth inhibition relative to control
[42] = system: M14; experiment: Antiproliferative activity against human M14 cells at 10 uM assessed as cell growth inhibition relative to control
[43] = system: Malme-3M; experiment: Antiproliferative activity against human MALME-3M cells at 10 uM assessed as cell growth inhibition relative to control
[44] = system: 786-0; experiment: Antiproliferative activity against human 786-0 cells at 10 uM assessed as cell growth inhibition relative to control
[45] = system: IGROV-1; experiment: Antiproliferative activity against human IGROV1 cells at 10 uM assessed as cell growth inhibition relative to control
[46] = system: MOLT-4; experiment: Antiproliferative activity against human MOLT4 cells at 10 uM assessed as cell growth inhibition relative to control
[47] = system: NCI-H322M; experiment: Antiproliferative activity against human NCI-H322M cells at 10 uM assessed as cell growth inhibition relative to control
[48] = system: SF-295; experiment: Antiproliferative activity against human SF295 cells at 10 uM assessed as cell growth inhibition relative to control
[49] = Antiproliferative activity against human […] cells at 10 uM assessed as cell growth inhibition relative to control
[50] = system: EKVX; experiment: Antiproliferative activity against human EKVX cells at 10 uM assessed as cell growth inhibition relative to control
[51] = system: K562; experiment: Antiproliferative activity against human K562 cells at 10 uM assessed as cell growth inhibition relative to control
[52] = system: KM12; experiment: Antiproliferative activity against human KM12 cells at 10 uM assessed as cell growth inhibition relative to control
[53] = system: HT-29; experiment: Antiproliferative activity against human HT-29 cells at 10 uM assessed as cell growth inhibition relative to control
[54] = system: SF-539; experiment: Antiproliferative activity against human SF539 cells at 10 uM assessed as cell growth inhibition relative to control
[55] = system: HL-60(TB); experiment: Antiproliferative activity against human HL-60(TB) cells at 10 uM assessed as cell growth inhibition relative to control
[56] = system: T47D; experiment: Antiproliferative activity against human T47D cells at 10 uM assessed as cell growth inhibition relative to control
[57] = system: A549; experiment: Antiproliferative activity against human A549 cells at 10 uM assessed as cell growth inhibition relative to control

## CCOC(=O)C=C1[C@@H](O[Si](C)(C)C(C)(C)C)[C@H](n2cnc3c(N)ncnc32)O[C@@H]1CNC(=O)NC
[1]
  growth, % of control at 10 µM: 53%
[2]
  growth, % of control at 10 µM: 90%
[3]
  growth, % of control at 10 µM: 71%
[4]
  growth, % of control at 10 µM: 71%
[5]
  growth, % of control at 10 µM: 111%
[6]
  growth, % of control at 10 µM: 70%
[7]
  growth, % of control at 10 µM: 88%
[8]
  growth, % of control at 10 µM: 74%
[9]
  growth, % of control at 10 µM: 71%
[10]
  growth, % of control at 10 µM: 52%
[11]
  growth, % of control at 10 µM: 110%
[12]
  growth, % of control at 10 µM: 85%
[13]
  growth, % of control at 10 µM: 78%
[14]
  growth, % of control at 10 µM: 102%
[15]
  growth, % of control at 10 µM: 104%
[16]
  growth, % of control at 10 µM: 90%
[17]
  growth, % of control at 10 µM: 105%
[18]
  growth, % of control at 10 µM: 107%
[19]
  growth, % of control at 10 µM: 79%
[20]
  growth, % of control at 10 µM: 95%
[21]
  growth, % of control at 10 µM: 98%
[22]
  growth, % of control at 10 µM: 81%
[23]
  growth, % of control at 10 µM: 93%
[24]
  growth, % of control at 10 µM: 75%
[25]
  growth, % of control at 10 µM: 94%
[26]
  growth, % of control at 10 µM: 76%
[27]
  growth, % of control at 10 µM: 71%
[28]
  growth, % of control at 10 µM: 65%
[29]
  growth, % of control at 10 µM: 98%
[30]
  growth, % of control at 10 µM: 90%
[31]
  growth, % of control at 10 µM: 90%
[32]
  growth, % of control at 10 µM: 88%
[33]
  growth, % of control at 10 µM: 85%
[34]
  growth, % of control at 10 µM: 76%
[35]
  growth, % of control at 10 µM: 80%
[36]
  growth, % of control at 10 µM: 99%
[37]
  growth, % of control at 10 µM: 88%
[38]
  growth, % of control at 10 µM: 99%
[39]
  growth, % of control at 10 µM: 74%
[40]
  growth, % of control at 10 µM: 119%
[41]
  growth, % of control at 10 µM: 94%
[42]
  growth, % of control at 10 µM: 87%
[43]
  growth, % of control at 10 µM: 105%
[44]
  growth, % of control at 10 µM: 77%
[45]
  growth, % of control at 10 µM: 46%
[46]
  growth, % of control at 10 µM: 75%
[47]
  growth, % of control at 10 µM: 81%
[48]
  growth, % of control at 10 µM: 88%
[49]
  growth, % of control at 10 µM: 81%
[50]
  growth, % of control at 10 µM: 86%
[51]
  growth, % of control at 10 µM: 84%
[52]
  growth, % of control at 10 µM: 60%
[53]
  growth, % of control at 10 µM: 65%
[54]
  growth, % of control at 10 µM: 92%
[55]
  growth, % of control at 10 µM: 76%
[56]
  growth, % of control at 10 µM: 79%
[57]
  growth, % of control at 10 µM: 100%
